What was measured:
[1] = test system: hEPO mRNA; test: Pretreatment study in Cynomolgus monkeys (standard MC3 formulation, hEPO mRNA); type: in vivo; conditions: MC3 formulation once weekly for four weeks
Experimental: The effects of pretreatment to non-human primates were evaluated using a standard MC3 formulation including an mRNA encoding hEPO. Male monkeys were administered the nanoparticle composition once weekly for four weeks at a dose rate of 5 ml/kg/h and were pretreated with either methotrexate or dexamethasone.
As shown, in the absence of any pretreatment, maximal expression levels decreased nearly 70% over the course of the study.

[2] = Metabolite identification of Compound 18 in human plasma; type: in vitro ADME; design: key to Detection in incubation: +: Detected; ND: Not detected; conditions: for Detection in incubation: Compound 18 (10 μM), human plasma
Experimental: Metabolite Identification: Compound 18 (10 μM) was incubated with human plasma (29.0 mg protein/incubation) in incubation mixtures (200 μL final incubation volume) that consisted of 50/50v/v neat plasma (undiluted)/substrate solution in 50 mM phosphate buffer, pH 7.4). The plasma was obtained from male and female donors and contained K2EDTA anticoagulant. Reactions were started by addition of the substrate solution to human plasma and were stopped at four designated time points (0, 30, 60 and 90 min) by the addition of 600 μL of stop reagent (acetonitrile). Stopped incubation samples were centrifuged (e.g., 10,000×g for 10 min at 10° C.) and the supernatant fractions were analyzed by LC-MS/MS to characterize the metabolites formed from compound 18. Additional incubations were performed with the positive control procaine (5 μM) to establish competency of the test system. Samples were analyzed by LC-MS/MS.

[3] = test system: human hepatocytes; test: Metabolite profiling of Compound 18 with human hepatocytes; type: in vitro ADME; design: key to Detection in incubation: +: Detected; ND: Not detected; conditions: for Detection in incubation: Compound 18 (10 μM), human hepatocytes
Experimental: The results of metabolic profiling and characterization for compound 18 incubated with human hepatocytes or human plasma are summarized in Tables 41 and 42, respectively.

[4] = Lipid clearance from mouse tissues after weekly dosing; type: in vivo; conditions: 0.25 mg/kg mRNA on days 1, 8, and 15
Experimental: Repeat dosing of mRNA in an MC3-based LNP for a therapeutic indication would be expected to lead to accumulation of MC3 in tissues, based on the measured half-life. Therefore it was investigated whether the favorable single dose pharmacokinetics of compound 18 were maintained with weekly dosing. Clearance of MC3 and compound 18 from multiple mouse tissues was measured after dosing 0.05 mg/kg mRNA on day 1, 8 and 15 (FIG. 30A). Following dosing with MC3 LNPs, lipid was detected in liver, spleen, plasma, kidney, heart and lung, with liver and spleen containing the largest concentrations (FIG. 30A, for full panel of tissues see FIG. 35A). […] Compound 18 was also detected in plasma, lung, and kidney, but not in heart (FIG. 35A).
In vitro metabolite identification studies using compound 18 were also performed. […] The disappearance of parent compound 18 and the primary metabolite, compound 166, from mouse liver tissue was measured after dosing 0.25 mg/kg mRNA on days 1, 8, and 15.

[5] = Particle size and polydispersity index of nanoparticle compositions (Zetasizer Nano ZS); type: physicochemical; conditions: for Size (nm): lipid:DSPC:cholesterol:PEG-DMG 50:10:38.5:1.5 mol %
Procedure, shortened: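 Zetasizer Nano ZS; samples in 1×PBS; read-out: particle size plus polydispersity index.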

[6] = Encapsulation efficiency of RNA (QUANT-IT RIBOGREEN RNA assay); type: physicochemical; conditions: for EE (%): Table 1A
Procedure, shortened: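 RiboGreen fluorescence (ex ~480, em ~520 nm) compared between intact samples and Triton X-100-lysed samples after 15 min at 37 °C in TE buffer, pH 7.5. Percent free RNA is the blank-corrected intact/disrupted ratio.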

[7] = N/P 3, i.v. bolus at 5 mpk, Sprague Dawley rats; 5 mg/kg
Experimental: Sprague Dawley rats were administered with nanoparticles of the disclosure via i.v. bolus at 5 mpk. The nanoparticle contained two mRNA encoding a broadly neutralizing influenza antibody in a 2:1 ratio.

[8] = test system: IL-6, IP-10; test: Cytokine induction in mice upon intravenous administration; type: in vivo; design: Cytokine induction IL-6 / Cytokine induction IP-10: unit not given here; conditions: 0.5 mpk, 6 hours; for IL-6 induction: i.v., in words; for Cytokine induction IL-6 / Cytokine induction IP-10: intravenous
Procedure, shortened: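 IL-6 and IP-10 concentrations determined 6 hours after a single intravenous 0.5 mpk dose of lipid nanoparticle formulation in mice, with MC3 and PBS as comparators.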

[9] = Apparent (surface) pKa of the LNP formulation (TNS assay); type: physicochemical; conditions: Table 1A
Procedure, shortened: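 Fluorescence of TNS probe added to LNP samples (mRNA 0.04 mg/mL) was read across 21 buffers of pH about 3-12, triplicate per pH. The inflection point of the sigmoidal fluorescence-vs-pH curve, […], gives apparent pKa; method validated in 1× PBS and Tris/sucrose buffer.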

[10] = test system: luciferase (Luc) mRNA; test: Luc expression in liver, lung, spleen and femur 6 hours after intravenous administration; type: in vivo; conditions: mice, 0.5 mpk; for Total Flux Femur / Total Flux Liver / Total Flux Lung / Total Flux Spleen: intravenous
Procedure, shortened: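 LNP-formulated mRNA given IV to mice (n=3) at 0.5 mpk; at 6 h, bioluminescence imaged ex vivo 15 min after IP D-luciferin (15 mg/mL, 200 μL), organs imaged within 25 min. Values are total flux by region of interest.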

[11] = test system: sC5b-9; test: Complement activation in vitro (sC5b-9 levels); type: cell-based; conditions: human cells contacted in vitro; for sC5b-9 levels relative to saline: in words
Experimental: Complement activation assists in the clearance of pathogens from an organism. As it is undesirable that a subject's body recognize a nanoparticle composition as a foreign invader, low complement system activation upon administration of such a composition is preferred. The complex sC5b-9 is a marker for the activation of the complement system. Thus, human cells were contacted in vitro with nanoparticle compositions according to Table 1A and were evaluated for sC5b-9 levels.

[12] = test system: luciferase (Luc) mRNA; test: Luc expression, whole body bioluminescence after intravenous administration to mice; type: in vivo; conditions: for Total Flux 3 hours / Total Flux 6 hours / Total Flux 24 hours: Luc mRNA
Procedure, shortened: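 Bioluminescence, read as region-of-interest total flux at 3, 6 and 24 h, followed a single 0.5 mg/kg intravenous dose of Luc mRNA-loaded nanoparticles in mice (n=6). Luciferin substrate (200 μL, 15 mg/mL in PBS) was injected intraperitoneally into CD-1 mice 15 minutes ahead of each imaging point.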

## CN(Cc1cnc2nc(N)nc(N)c2n1)c1ccc(C(=O)N[C@@H](CCC(=O)O)C(=O)O)cc1 [Methotrexate, methotrexate]
[1]
  effect of pretreatment on hEPO protein expression: did not confer any particular beneficial effect

## CCCCCCCCC(CCCCCCCC)OC(=O)CCCCCCCN(CCO)CCCCCCCC(=O)O [Compound 166, 8-((8-(Heptadecan-9-yloxy)-8-oxooctyl)(2-hydroxyethyl)amino)octanoic acid]
[2]; Compound 18 (10 μM) with human plasma (29.0 mg protein/incubation)
  Proposed biotransformation: Ester hydrolysis
[2]; 30 min
  Detection in incubation: +
[2]; 60 min
  Detection in incubation: +
[2]; 90 min
  Detection in incubation: +
[3]; Compound 18 (10 μM) with human hepatocytes (1 million cells/mL)
  Proposed biotransformation: Ester hydrolysis
[3]; 60 min
  Detection in incubation: +
[3]; 120 min
  Detection in incubation: +
[3]; 240 min
  Detection in incubation: +
[4]
  disappearance from mouse liver tissue: rapid clearance

## CCCCCCCCC(CC)OC(=O)CCCCCCCN(CCCCCCCC(=O)OC(CCCCCCCC)CCCCCCCC)CCCNc1c(NC)c(=O)c1=O (stereo not drawn) [Compound 301, Heptadecan-9-yl 8-((3-((2-(methylamino)-3,4-dioxocyclobut-1-en-1-yl)amino)propyl)(8-oxo-8-(undecan-3-yloxy)octyl)amino)octanoate]
[5]; N/P 3 (Table 43)
  Diameter: 68 nm
  PDI: 0.09
[5]; N/P 5.8 (Table 43)
  Diameter: 69 nm
  PDI: 0.24
[6]; N/P 3 (Table 43)
  % EE: 86%
[6]; N/P 5.8 (Table 43)
  % EE: 96%
[7]
  Clinical Observations: signs of decreased activity

## CCCCCCCCCOC(=O)CCCCCCCN(CCCCCCCC(=O)OC(CCCCCCCC)CCCCCCCC)CCOC(C)=O [Compound 9, Heptadecan-9-yl 8-((2-acetoxyethyl)(8-(nonyloxy)-8-oxooctyl)amino) octanoate]
[8]
  IL-6 induction: highest
  Cytokine induction IL-6: 317.45
  Cytokine induction IP-10: 366.53
[5]; Table 1A
  PDI: 0.12
  Size (nm): 68.5 nm
[6]
  EE (%): 75.7%
[9]
  pKa: 4.87
[10]; i.v., in words
  Flux in the spleen: lowest
[10]
  Total Flux Femur: 2.57E+04
  Total Flux Liver: 4.30E+05
  Total Flux Lung: 2.56E+04
  Total Flux Spleen: 5.51E+04
[11]
  Fold increase in sC5b-9 levels versus saline: 0.92
  sC5b-9 levels relative to saline: slightly decrease
[12]; mice, i.v., 0.5 mg/kg
  Total Flux 3 hours: 1.43E+08
  Total Flux 6 hours: 3.46E+06
  Total Flux 24 hours: 1.01E+06
[12]; mice, i.v., 0.5 mg/kg, 3, 6 and 24 hour, in words
  flux at all timepoints measured: significantly lower flux

## CCCCCC/C=C\COC(=O)CCCCCCCN(CCO)CCCCCCCC(=O)OC/C=C\CCCCCC [Compound 139, Di((Z)-non-2-en-1-yl) 8,8′-((2-hydroxyethyl)azanediyl)dioctanoate]
[8]
  Cytokine induction IL-6: 23.57
  Cytokine induction IP-10: 153.36
[5]; Table 1A
  PDI: 0.54
  Size (nm): 174.0 nm
[6]
  EE (%): 78.2%
[9]
  pKa: 7.04
[10]
  Total Flux Femur: 5.12E+04
  Total Flux Liver: 8.27E+05
  Total Flux Lung: 5.26E+04
  Total Flux Spleen: 2.10E+06
[11]
  Fold increase in sC5b-9 levels versus saline: 0.73
[12]; mice, i.v., 0.5 mg/kg
  Total Flux 3 hours: 3.50E+07
  Total Flux 6 hours: 1.17E+07
  Total Flux 24 hours: 5.89E+05

## CCCCCCCCCCCCCCCCCCN(CCO)CCCCCCCC(=O)OC(CCCCCCCC)CCCCCCCC [Compound 1, Heptadecan-9-yl 8-((2-hydroxyethyl)(octadecyl)amino)octanoate]
[8]
  IL-6 induction: highest
  Cytokine induction IL-6: 267.24
  Cytokine induction IP-10: 687.14
[5]; Table 1A
  PDI: 0.091
  Size (nm): 72.7 nm
[6]
  EE (%): 97.04%
[9]
  pKa: 6.50
[10]
  Total Flux Femur: 7.52E+05
  Total Flux Liver: 4.02E+08
  Total Flux Lung: 1.72E+06
  Total Flux Spleen: 4.27E+06
[11]
  Fold increase in sC5b-9 levels versus saline: 0.82
  sC5b-9 levels relative to saline: slightly decrease
[12]; Table 3A, i.v. administration
  Fold increase in total body Luc Flux relative to MC3 at 6 h: 0.40
[12]; mice, i.v., 0.5 mg/kg
  Total Flux 3 hours: 3.48E+09
  Total Flux 6 hours: 3.40E+09
  Total Flux 24 hours: 4.10E+08

Source: US12263248B2, “Compounds and compositions for intracellular delivery of therapeutic agents” (ModernaTX, Inc., priority 2018, dated 2025)
